In publication PMC5282547, “The Proline/Arginine Dipeptide from Hexanucleotide Repeat Expanded C9ORF72 Inhibits the Proteasome” (eNeuro, 2017):
Entries after “also recorded” stand apart in the source; their conditions may differ. Where a SMILES comes first, the peptide text is derived from it. The star is where a group is joined. Cbz = O=C(OCc1ccccc1)*

How the values were obtained:
motor neurons [1] = test: Motor neuron survival with IU1 co-treatment; format: cell-based, rat
Procedure: Days in vitro (DIV)14 mixed spinal cord cultures were exposed to PR20 or GR20 by addition of synthetic peptide to the media one time. Cultures were fixed 5 d later with freshly prepared 4% paraformaldehyde for 20 min, washed extensively with 0.1 M PBS, pH 7.4, and immunostained with SMI32 to identify motor neurons. […] Motor neurons were counted in three nonoverlapping, randomly selected fields on a coverslip using a 5[times objective, and the values from a single coverslip averaged.
For experiments involving IU1, DIV14 cultures were treated with PR20 or its vehicle, and every other day, IU1 (or vehicle) was added to the culture media to achieve a final concentration of 5 µM. At DIV19, cultures were fixed and motor neuron number determined as described above.

[2] = test system: ubiquitin-proteasome system; test: MG-132 flux assay (flux of ubiquitylated substrates through the UPS); format: cell-based, rat
Procedure: MG-132 (Sigma) was used to inhibit proteasomal function. Cells were initially treated with PR20 for a total of 48 h using the method outlined in PR20 treatment for biochemical assays. Four hours prior to lysis, these cells were treated with MG-132 or vehicle. The MG-132 was kept in a stock solution in DMSO. This was added directly to culture to achieve a final concentration of 5 μM. Cells were then lysed in RIPA buffer and immunoblotted for ubiquitin.
Ubiquitin analysis requires the use of deubiquitinase (DUB) inhibitors. Lysis without these inhibitors runs the risk of degradation of the substrates to be targeted. As such, N-ethylmaleimide (Sigma), a potent DUB inhibitor, was used in the lysis buffer. […] The remainder of the lysis procedure follows Cell lysis.
To test for group differences in the flux assay, a permutation test was used. This is a nonparametric statistical test that was implemented in MATLAB. […] The test first quantifies this by taking the average of each experimental group and then finding the difference of ratios. It then permutes two samples located in two groups randomly, and determines that difference between averages again. This is repeated 50,000 times, and a histogram is plotted. This histogram represents the distribution of random noise in the sample. Since a higher difference in the +MG132/−MG132 ratio is a more “significant” result, the percentage of the random noise produced from 50,000 permutations that is higher in magnitude than the true difference (calculated from un-permuted data) is the p value.
Permutations of a data point in a +MG132 into a group labeled −MG132 (or vice versa) were not allowed. […] Thus, this group difference was not interesting to us.

Dendra2-LC3 = test: Autophagic flux assay, optical pulse labeling of Dendra2-LC3; format: cell-based, rat
Procedure: (§1) Primary spinal neurons were dissected from E15 rat pups and cultured at a density of 2.5 × 10^5 cells/ml on a laminin/poly-lysine-coated 96-well plate in motor neuron media. Four days after plating, neurons were transfected with Lipofectamine 2000 (Invitrogen). DNA-Lipofectamine mixtures were incubated with neurons for 20 min followed by rinsing. Neurons were then placed in 100 µL of conditioned media that was collected immediately prior to transfection and half fresh motor neuron media containing 4 µM PR20, resulting in a final concentration of 2 µM PR20.
(§2) Optical pulse labeling experiments were performed using an automated microscopy platform previously described by [Arrasate et al. (2004)] and [Barmada et al. (2014)]. A Nikon Eclipse Ti inverted microscope equipped with a PerfectFocus system, 20× objective lens and an Andor iXon3 897 EMCCD camera were used to acquire images. Samples were illuminated with a Sutter Instruments Lamba XL lamp. The microscope and related components were encased in custom-built plexiglass enclosure set to maintain the temperature at 37°C and CO2 at 5%. Semrock GFP and TRITC filters were used for excitation and detection. A Semrock 405-nm long-pass filter was used for photoactivation. Image acquisition and stage movements were accomplished in an automated fashion using µManager and original code written in BeanShell. For all experiments, photoconversion occurred 24 h following transfection. GFP and TRITC images were acquired immediately following activation and subsequently every 2 h for 12 h. Images were acquired in a similar 12-h window starting 48 h after PR20 treatment. Using in-house image analysis scripts, neuronal cell bodies were identified based on their fluorescent intensity and morphology, and a ROI was drawn around the perimeter of each cell at each time. Single-cell TRITC intensity values were recorded and used to fit a first order exponential decay curve for individual neurons and calculate a Dendra2-light chain 3 (LC3) half-life for each cell. […]

Dendra2 = test: Optical pulse labeling of Dendra2; format: cell-based, rat; settings: vehicle 29.6 h
Procedure: as §1, §2

motor neurons [3] = test: Motor neuron survival in mixed spinal cord cultures (SMI32 counts), LD50 determination; format: cell-based, rat
Procedure: Mixed spinal cord neuron cultures were prepared as described previously ([Mojsilovic-Petrovic et al., 2006]). Briefly, an astrocyte feeder layer was prepared from the cortex of newborn Sprague Dawley rat pups [postnatal day 2 (P2)] and grown to ∼80% confluency. Subsequently, dissociated embryonic day 15 (E15) spinal cord neurons were added. One to two days later, AraC ([…]) (catalog #C6645; Sigma) was added for 24 h to arrest astrocyte proliferation. Cultures were maintained in glia-conditioned medium supplemented with the following trophic factors (1.0 ng/ml each): human neurotrophin-3, human neurotrophin-4, human brain-derived neurotrophic factor, and rat ciliary neurotrophic factor (Alomone Labs). Half of the culture medium was replaced on a biweekly basis.
Days in vitro (DIV)14 mixed spinal cord cultures were exposed to PR20 or GR20 by addition of synthetic peptide to the media one time. Cultures were fixed 5 d later with freshly prepared 4% paraformaldehyde for 20 min, washed extensively with 0.1 M PBS, pH 7.4, and immunostained with SMI32 to identify motor neurons. Immunopositive cells >25 µm in diameter are motor neurons based on their costaining for peripherin, ChAT, and islet 1/2 ([Mojsilovic-Petrovic et al., 2006]). Motor neurons were counted in three nonoverlapping, randomly selected fields on a coverslip using a 5[times objective, and the values from a single coverslip averaged. The results of 3-5 independently treated coverslips were the basis and means and variance used in statistical analysis. Each experiment was repeated with independently generated culture 4+ times ([Mojsilovic-Petrovic et al., 2006]).
Motor neuron survival 5 d later was determined. Once the approximate LD50 was determined, we repeated the analysis with more closely spaced concentrations for a more precise definition of the LD50. Determination of the LD50 of MG132 was accomplished in an identical manner.

[4] = test system: U2OS cells and human astrocytes; settings: cited from earlier work
Source text: The difficulty of distinguishing between toxic HRE mRNA and DPR proteins has impeded our understanding of the mechanism underlying C9ORF72 HRE pathophysiology. As reported in Science ([Kwon et al., 2014]), the McKnight lab devised a strategy to overcome this problem: they studied U2OS cells and human astrocytes directly exposed to synthetic DPR proteins. […] We built upon this approa ...

[5] = test system: mixed spinal cord cultures; test: Cellular accumulation and disposal of HA-tagged DPR (immunoblot of cell lysates, continuous exposure or 2-h pulse-chase)
Procedure: Confluent dishes of astrocyte neuron cocultures at 37°C had volumes equalized to 2 ml of cell culture media each. Approximately 300 μl of media from each dish was removed and pooled with other dishes, PR20 stock solution was added, and the mixture was then added back to the corresponding culture dish, so that each dish contained a final concentration of 2 μM. All plates were incubated with PR20 for 48 h.
Lysis buffer was prepared containing 1% (v/v) protease inhibitor cocktail, 1% (v/v) PMSF, and 1% (v/v) leucine in 1% RIPA buffer solution on ice. Culture dishes were washed once with ice-cold PBS to remove any remaining media. A total of 125 μl (35-mm dish), 150 μl (6-well plate), or 250 μL (60-mm dish) of lysis buffer was added to each plate, and cells were scraped into a cold 1.5-ml tube. Samples were sonicated for 30 s at 20% intensity, placed on a rotator at 4°C for 20 min, and then centrifuged for 15 min at 13,200 rpm. Supernatant was then removed from each tube for further analysis.
We investigated the fate of PR20 in mixed spinal cord cultures through immunoblotting and immunocytochemistry. […] To gain further insight into the kinetics of the observed decrease in PR20 levels in cell lysates over time, we pulsed cells with 2 µM PR20 for 2 h, washed, replaced with fresh media (lacking PR20), and made cell lysates at regular intervals thereafter. […] To more easily follow GR20 by immunoblotting, we applied 10 µM GR20 to cultures and performed the same kinetic analysis as described in Figure 1D.

[6] = 10 µM in media, continuous exposure

Cc1cc(C(=O)CN2CCCC2)c(C)n1-c1ccc(F)cc1 [IU1]
effect of IU1 on MG132-induced reduction in motor neuron number (motor neurons [1]; 5 µM IU1, 150 nM MG132, 5 d): reversed
effect of IU1 on PR20-induced motor neuron death (motor neurons [1]; 5 µM IU1 every other day with PR20, 5 d, p < 0.05): blocks the toxic effects; also recorded: rescued to control levels; also recorded: prevents this effect
effect of IU1 alone on motor neuron survival (motor neurons [1]; 5 µM IU1 every other day, vehicle-treated cells, 5 d): not toxic; also recorded: did not influence the survival

CC(C)C[C@@H](C=O)NC(=O)[C@H](CC(C)C)NC(=O)[C@H](CC(C)C)NC(=O)OCc1ccccc1 [MG132, reference compound] (Cbz-Leu-Leu-Leu-aldehyde)
proteasomal flux versus control ([2]; 150 nM MG132 48 h, then 5 µM MG132 or vehicle 4 h, n = 6, p = 0.027): statistically significant reduction
extension of Dendra2-LC3 half-life compared with control (Dendra2-LC3; 10 µM MG132, primary spinal neurons): 11.9 h
motor neuron number compared with all other experimental groups (motor neurons [1]; 150 nM MG132, 5 d, p = 0.001): statistically significantly fewer motor neurons
Dendra2 half-life (Dendra2; MG132 (10 µM), p = 3.23 × 10^−5): 32.3 h
LD50, motor neuron number (motor neurons [3]; added one time to mixed spinal cord cultures, counted 5 d later): 100 to 150 nM

GR20: synthetic, HA-tagged dipeptide repeat protein: glycine/arginine repeated 20 times
toxic concentration range [4]: 10 to 30 µM
period of maximal accumulation in cells [5, 6]: first hour
time point at which immunoblot signal is undetectable [5, 6]: 24 h
earliest detection in cell lysates ([5]; 10 µM in media, continuous exposure, anti-HA immunoblot): 15 min
lysate fractions with detectable Western blot signal at the 2-h time point ([5]; 2-h pulse-chase, 10 µM): soluble fraction only
time point by which signal diminishes to a barely detectable level ([5]; 2-h pulse-chase, 10 µM): 4 h
half-life of dipeptide in cells ([5]; immunoblot of mixed spinal cord culture lysates): on the orders of hours
detectability by immunoblotting in lysates ([5]; single 2-h application of 2 µM): weakly detectable
proteasomal flux (difference in ubiquitin +/- MG-132) versus vehicle ([2]; peptide 48 h (PR20 2 µM), then MG-132 5 µM or vehicle 4 h, permutation test): neither influenced total ubiquitin levels nor proteasomal flux
extension of Dendra2-LC3 half-life compared with control (Dendra2-LC3; 2 µM peptide, primary spinal neurons, single-cell optical pulse labeling): 1.5 h
Dendra2 half-life (Dendra2; 2 µM peptide, not significantly different from vehicle): 31.0 h
toxicity to motor neurons at ∼20 times higher concentration than PR20 (motor neurons [3]; 5 d): not toxic
